Source: patent US20230041138A1, “TREATMENT OF HIS HYPORESPONDERS” (NewAmsterdam Pharma B.V. (Dutch Registration No. 55971946), priority 2021, published 2023)
Values joined by “and” are separate entries in the source; they are usually repeats but may differ in a detail not shown here. Identical values can stand only once.

Test system: Lipoprotein, lipid and apolipoprotein concentrations
Assay: Phase 2 placebo-controlled study of obicetrapib as adjunct to high-intensity statin therapy: lipid efficacy
Format: in vivo, human
Conditions: for Apo A1, week 8 change, LS Mean ± SE / Apo B, week 8 change, LS Mean ± SE / HDL-C, week 8 change, LS Mean ± SE / LDL-C (Martin-Hopkins), week 8 change, LS Mean ± SE / Lp(a), week 8 change, LS Mean ± SE / Non-HDL-C, week 8 change, LS Mean ± SE / TG, week 8 change, LS Mean ± SE / VLDL-C, week 8 change, LS Mean ± SE / LDL-C by Friedewald, % change from baseline, LS mean: MMRM; for LDL-C (PUC), week 8 change, LS Mean ± SE (Table 9): analysis of covariance model; for LDL-C (Friedewald formula) reduced from baseline by: primary analysis; for LDL-C (Friedewald formula) reduced from baseline by / Apo B reduced by / Lp(a) reduced by / non-HDL-C reduced by: stated as reduction; for ApoB, % change from baseline, median / HDL-C, % change from baseline, median / LDL-C by Friedewald, % change from baseline (median) / LDL-C by PUC, % change from baseline (median) / Non-HDL-C, % change (median) from baseline / LDL-C by Friedewald, % change from baseline, LS mean: week 8, on top of high-intensity statin
Procedure: The study consisted of three arms: 1) 5 mg obicetrapib as adjunctive therapy; 2) 10 mg obicetrapib as adjunctive therapy and 3) a placebo arm. The second objective was to evaluate other lipoprotein lipid and apolipoprotein responses, safety and tolerability profiles, and plasma concentrations of obicetrapib during treatment and for several weeks of follow-up. Lastly, this study aimed to determine if different quantitative measures of LDL-C levels produced differences in the treatment effects of CETP inhibition.
This randomised, double-blind, placebo-controlled, parallel-group phase 2 trial was conducted in male and female patients (18-75 years), treated with high-intensity statin therapy, with LDL-C levels >70 mg/DL and TG levels <400 mg/dL. Key exclusion criteria were patients with BMI >40 kg/m; Significant cardiovascular disease; HbAc >10%; Uncontrolled hypertension; Active muscle disease; GFR <60 ml/min; Hepatic dysfunction; Anemia; History of malignancy; Alcohol abuse; Treatment with investigational product; Treatment with PCSK9 inhibitor; Clinically significant condition; and/or prior exposure to a CETP inhibitor. Patients were recruited at 19 sites in the United States. The trial was approved by Independent Ethics Committees, and each patient provided written informed consent. The trial was conducted in accordance with the principles of the Declaration of Helsinki and Good Clinical Practice Guidelines and the protocol was registered on ClinicalTrials.gov (NCT04753606).
The screening period for this study took up to 2-weeks. Afterwards patients were randomized to placebo, 5 mg obicetrapib or 10 mg obicetrapib for an 8-week treatment period. After the treatment period, patients continued for a 4-week safety follow-up and a 15-week PK follow-up.
Patients were randomly assigned to receive one of the three treatments investigative treatments. All treatments were to be taken once daily with food for 8 weeks. Safety was assessed throughout the trial by monitoring adverse events and concomitant medication use, 12-lead electrocardiograms (ECGs), vital signs, laboratory safety assessments and physical examinations. Additional assessments included salivary cortisol, plasma aldosterone, high-sensitivity C-reactive protein (hsCRP) and endothelin 1.
Efficacy assessments included fasted lipid profiles including total cholesterol (TC), HDL-C, LDL-C, triglycerides, apolipoprotein B (ApoB), and derived parameters.
Total cholesterol and triglycerides were measured by homogenous enzymatic assay using a Modular analyser (cholesterol oxidase peroxidase-peroxidase aminophenazone phenol [CHOP-PAP]) method and a glycerol phosphate oxidase [GPO-PAP] method, respectively. Apolipoprotein B was measured by immunoturbidimetry using reagents from Rolf Greiner Biochemica (Germany) and N apoprotein standard serum from Siemens (Germany). LDL particle size was determined by gradient gel electrophoresis. HDL fraction was separated by a combined ultracentrifugation-precipitation method (β-quantification). HDL-2 and HDL-3 fractions were then separated by further ultracentrifugation. Total-cholesterol in HDL, HDL 2 and HLD-3 fractions, free cholesterol in HDL fraction, triglycerides in HDL fraction and phospholipids in plasma and HDL-fraction were measured using enzymatic methods and reagents from Diasys Diagnostics (Germany). The measurements were performed on an Olympus AU600 automatic analyzer and were calibrated using secondary standards from Roche Diagnostics (total-cholesterol, triglycerides) and Diasys Diagnostics (free cholesterol, phospholipids), respectively. Esterified cholesterol was calculated as the difference between total-cholesterol and free cholesterol.
The primary outcome measure was LDL-C (percent change). Secondary outcome measures included ApoB, Non-HDL-C and HDL-C (percent change). The Intent-to-Treat (ITT) Population included all participants randomized into the study. […]

[1] = 5 mg once daily for 8 weeks on top of high-intensity statin
[2] = 5 mg once daily on top of high-intensity statin
[3] = 5 mg once daily on top of high-intensity statin, listed as obicetrapib
[4] = 5 mg once daily, 8 weeks, on top of high-intensity statin
[5] = 10 mg once daily for 8 weeks on top of high-intensity statin
[6] = 10 mg once daily on top of high-intensity statin
[7] = 10 mg once daily, 8 weeks, on top of high-intensity statin

For `CCOC(=O)N1c2ccc(C(F)(F)F)cc2[C@@H](N(Cc2cc(C(F)(F)F)cc(C(F)(F)F)c2)c2ncc(OCCCC(=O)O)cn2)C[C@H]1CC` [Obicetrapib, (2R,4S)-4-{[3,5-bis(trifluoromethyl)benzyl]-[5-(3-carboxypropoxy)pyrimidin-2-yl]amino}-2-ethyl-6-trifluoromethyl-3,4-dihydro-2H-quinoline-1-carboxylic acid ethyl ester], the “Time of treatment at which maximum LDL-C reductions were already present” value (5 mg and 10 mg add-on to high-intensity statin) was no more than 4 weeks, the “ApoB, EoT median” value [1] was 65.0 mg/dL and the “ApoB, change from baseline, median” value [1] was -22.0 mg/dL. The “HDL-C, EoT median” value [1] was 107.0 mg/dL, the “HDL-C, change from baseline, median” value [1] was 60.0 mg/dL and the “LDL-C by Friedewald, EoT median” value [1] was 51.0 mg/dL. For the same compound, the “LDL-C by PUC, EoT median” value [1] was 53.0 mg/dL, the “Non-HDL-C, EoT median” value [1] was 71 mg/dL and the “Apo A1, week 8 change, median (min, max)” value [2] was 44.6% and 44.6 (−10.0, 87.1) %. For the same compound, the “LDL-C (Martin-Hopkins), week 8 change, median (min, max)” value [2] was −42.5 (−80.8, 74.4) %, the “Lp(a), week 8 change, median (min, max)” value [2] was −33.8 (−84.6, 93.8) % and the “TG, week 8 change, median (min, max)” value [2] was −11.0 (−53.3, 86.7) %. For the same compound, the “VLDL-C, week 8 change, median (min, max)” value [2] was −11.5 (−53.5, 83.3) %, the “Apo A1, week 8 change, LS Mean ± SE” value [2] was 41.1 ± 3.04% and the “Apo B, week 8 change, LS Mean ± SE” value [2] was −22.4 ± 2.58%. The “HDL-C, week 8 change, LS Mean ± SE” value [2] was 122 ± 6.59%, the “LDL-C (Martin-Hopkins), week 8 change, LS Mean ± SE” value [2] was −39.6 ± 3.68% and the “Lp(a), week 8 change, LS Mean ± SE” value [2] was −30.9 ± 4.43%. For the same compound, the “Non-HDL-C, week 8 change, LS Mean ± SE” value [2] was −34.4 ± 3.18%, the “TG, week 8 change, LS Mean ± SE” value [2] was −6.63 ± 5.32% and the “VLDL-C, week 8 change, LS Mean ± SE” value [2] was −6.02 ± 5.24%. For the same compound, the “LDL-C (PUC), week 8 change, LS Mean ± SE (Table 9)” value [2] was −35.7 ± 3.31%, the “LDL-C (Martin-Hopkins), week 8 change, median (min, max)” value [3] was 42.5% and the “TG, week 8 change, median (min, max)” value [3] was −11.0%. The “VLDL-C, week 8 change, median (min, max)” value [3] was −11.5%, the “LDL-C by PUC, % change from baseline, LS mean (Table 3)” value [4] was −37.98% and the “LDL-C (Friedewald formula) reduced from baseline by” value [4] was 42.9%. For the same compound, the “Apo B reduced by” value [4] was 24.4%, the “Lp(a) reduced by” value [4] was 33.8% and the “non-HDL-C reduced by” value [4] was 38.9%. The “ApoB, % change from baseline, median” value (5 mg once daily) was −24.40% and −24.4 (−58.5, 47.4) %, the “HDL-C, % change from baseline, median” value (5 mg once daily) was 135% and 135.4% and 135 (−26.4, 213) % and the “LDL-C by Friedewald, % change from baseline (median)” value (5 mg once daily) was −42.90% and −42.9 (−81.9, 72.4) %. For the same compound, the “LDL-C by PUC, % change from baseline (median)” value (5 mg once daily) was −41.5% and −41.45% and −41.5 (−71.2, 62.3) %, the “Non-HDL-C, % change (median) from baseline” value (5 mg once daily) was −38.9% and −38.9 (−65.6, 66.3) % and the “LDL-C by Friedewald, % change from baseline, LS mean” value (5 mg once daily) was −37.94% and −38.0 ± 3.49%. The “LDL-C by PUC, % change from baseline (median)” value (5 mg once daily, listed as obicetrapib) was −41.5%, the “ApoB, EoT median” value [5] was 58.5 mg/dL and the “ApoB, change from baseline, median” value [5] was -24.5 mg/dL. For the same compound, the “HDL-C, EoT median” value [5] was 117.5 mg/dL, the “HDL-C, change from baseline, median” value [5] was 72.0 mg/dL and the “LDL-C by Friedewald, EoT median” value [5] was 52.0 mg/dL. For the same compound, the “LDL-C by PUC, EoT median” value [5] was 49.5 mg/dL, the “Non-HDL-C, EoT median” value [5] was 69 mg/dL and the “Apo A1, week 8 change, median (min, max)” value [6] was 47.8% and 47.8 (13.5, 106) %. For the same compound, the “LDL-C (Martin-Hopkins), week 8 change, median (min, max)” value [6] was −49.2 (−77.0, 28.1) %, the “Lp(a), week 8 change, median (min, max)” value [6] was −56.5 (−85.7, 18.3) % and the “TG, week 8 change, median (min, max)” value [6] was −7.85 (−63.7, 129) %. The “VLDL-C, week 8 change, median (min, max)” value [6] was −7.90 (−44.4, 125) %, the “Apo A1, week 8 change, LS Mean ± SE” value [6] was 52.3 ± 3.04% and the “Apo B, week 8 change, LS Mean ± SE” value [6] was −28.1 ± 2.56%. The “HDL-C, week 8 change, LS Mean ± SE” value [6] was 157 ± 6.54%, the “LDL-C (Martin-Hopkins), week 8 change, LS Mean ± SE” value [6] was −46.9 ± 3.65% and the “Lp(a), week 8 change, LS Mean ± SE” value [6] was −42.0 ± 4.33%. The “Non-HDL-C, week 8 change, LS Mean ± SE” value [6] was −39.9 ± 3.15%, the “TG, week 8 change, LS Mean ± SE” value [6] was 2.45 ± 5.27% and the “VLDL-C, week 8 change, LS Mean ± SE” value [6] was 3.08 ± 5.19%. For the same compound, the “LDL-C (PUC), week 8 change, LS Mean ± SE (Table 9)” value [6] was −46.8 ± 3.23%, the “LDL-C (Martin-Hopkins), week 8 change, median (min, max)” value (10 mg once daily on top of high-intensity statin, listed as obicetrapib) was −49.2% and the “LDL-C by PUC, % change from baseline, LS mean (Table 3)” value [7] was −44.15%. The “TG and VLDL-C, comparison with placebo” value [7] was “not significantly different”, the “LDL-C (Friedewald formula) reduced from baseline by” value [7] was 45.7% and the “Apo B reduced by” value [7] was 29.8%. The “Lp(a) reduced by” value [7] was 56.5%, the “non-HDL-C reduced by” value [7] was 44.4% and the “ApoB, % change from baseline, median” value (10 mg once daily) was −29.75% and −29.8 (−58.4, 13.0) %. The “HDL-C, % change from baseline, median” value (10 mg once daily) was 165% and 165 (55.1,286) %, the “LDL-C by Friedewald, % change from baseline (median)” value (10 mg once daily) was −45.65% and −45.7 (−78.0, 26.2) % and the “LDL-C by PUC, % change from baseline (median)” value (10 mg once daily) was −50.8% and −50.75% and −50.8 (−76.9, 15.6) %. For the same compound, the “Non-HDL-C, % change (median) from baseline” value (10 mg once daily) was −44.4% and −44.4 (.70.2, 22.5) %, the “LDL-C by Friedewald, % change from baseline, LS mean” value (10 mg once daily) was −44.15% and −44.2 ± 3.46% and the “LDL-C by PUC, % change from baseline (median)” value (10 mg once daily, listed as obicetrapib) was −50.8%. The “median Apo B reduction from baseline, post-hoc analysis” value (10 mg, individuals with baseline Apo B >100 mg/dL) was 39%.
